Legend:
[1] = test system: H1975; test: Cell anti-proliferation experiment (CTG); type: cell-based; conditions: Homo sapiens, NCI-H1975, 72 h, H1975 (EGFR T790M/L858R)
Description: (§1) H1975 has an EGFR: T790M/L858R double mutation, PC-9 has an EGFR exon 19 deletion, and HCC827 has an exon 19 deletion mutation. Baf3-19del- T790M -C797S (Baf3-DTC) is a stable Ba/F3 clone expressing exogenous EGFR gene bearing T790M, C797S, and […] triple amino acid mutations, purchased from KYinno. Baf3-L858R-T790M - C797S (Baf3-LTC) is a stable Ba/F3 clone expressing exogenous EGFR gene bearing […], T790M, and C797S triple mutations, purchased from KYinno. A549 is a wild-type EGFR, purchased from Nanjing Kebai Biotechnology. A431 is a wild-type EGFR, purchased from Shanghai Xinyu Biotechnology. CellCounting-Lite2.0, Trypsin EDTA, 37°C CO2 incubator, cell counter, EnVision Serial No. 1050454.
(§2) • A) Digested logarithmic phase cells with Trypsin EDTA, added culture medium to stop the reaction, and mixing well with a pipette to prepare a cell suspension. • B) Used Vi-cell to determine cell concentration, and prepared a suspension of 15,000-25,000 cells per milliliter according to the experimental purpose and cell characteristics. • C) After prepared the cell suspension, mixed it gently and added 100 µL to each well, so that the cell density to be tested is 1500-2500 per well.
(§3) • A) Weighed approximately 2 mg the compound and calculated the required volume of DMSO according to the formula: Compound mass (mg) * Compound purity (%) / Compound molecular weight * 1000. • B) Placed the inoculated cell culture plate into an incubator and incubated for about 24 hours. Then added compounds of varying concentrations. • C) Diluted the 10mM compound stock solution to […] with culture medium, and added the […] compound solution to the second column of the deep well plate in sequence, and added […] culture medium containing 0.5% DMSO to the third to eleventh columns. • D) Gradient dilution: Taked 125 µL solution from the second column and added it to the third column, mix well; then taked 125 µL solution from the third column and added it to the fourth column, repeated this operation until the tenth column. • E) Used a multichannel pipette, aspirated 25 µL the compound from the deep-well plate and added it to a 96-well culture plate. Repeated this process three times for each compound on the 96-well plate. This will ultimately create a concentration gradient of up to 10,000 nM at a 1:4 ratio on the 96-well plate.
(§4) • A) The effects of the compound were observed under an inverted microscope after the 96-well plate was incubated in an incubator for 72 hours. • B) Added 25 µL CTG solution to each well, placed on a shaker for 10 minutes, and read the […] of each well.
(§5) Calculate the % Cell Viability using the following formula: %Cell Viability = 100% × (Lum_Sample−Lum_LC)/(Lum_HC−Lum_LC) [formula] • Lum_HC: Cell readings from the 0.1% DMSO control group • Lum_Sample: Cell readings with added compound • Lum_LC: Blank culture medium reading
(§6) The IC50 value was obtained by curve fitting using GraphPad Prism 8 software.

[2] = test system: A549; test: Cell anti-proliferation experiment (CTG); type: cell-based; conditions: Homo sapiens, A549, 72 h, A549 (wild-type EGFR)
Description: as §1, §2, §3, §4, §5, §6

[3] = test system: PC-9; test: Cell anti-proliferation experiment (CTG); type: cell-based; conditions: Homo sapiens, PC-9, 72 h, PC-9 (EGFR exon 19 deletion)
Description: as §1, §2, §3, §4, §5, §6

[4] = test system: HCC827; test: Cell anti-proliferation experiment (CTG); type: cell-based; conditions: Homo sapiens, HCC827, 72 h, HCC827 (exon 19 deletion)
Description: as §1, §2, §3, §4, §5, §6

[5] = test system: Baf3-19del- T790M -C797S (Baf3-DTC); test: Cell anti-proliferation experiment (CTG); type: cell-based; conditions: 72 h, class symbol
Description: as §1, §2, §3, §4, §5, §6

[6] = test system: Baf3-L858R-T790M - C797S (Baf3-LTC); test: Cell anti-proliferation experiment (CTG); type: cell-based; conditions: 72 h, class symbol
Description: as §1, §2, §3, §4, §5, §6

[7] = test system: A431; test: Cell anti-proliferation experiment (CTG); type: cell-based; conditions: Homo sapiens, A-431, 72 h, A431 (wild-type EGFR), class symbol
Description: as §1, §2, §3, §4, §5, §6

[8] = Pharmacokinetic tests in male SD rats; type: in vivo; conditions: oral gavage (po), 10 mg/kg, plasma
Description: Three healthy adult male SD rats, 6-8 weeks old, weighing 200-300 grams.
EDTA-Na2 anticoagulant, weighed 11.2 g EDTA-Na2 and placed it in a reagent bottle. Added 100 mL physiological saline and shaked to dissolve completely. After preparation, dispensed into 1.5 mL centrifuge tubes, each containing approximately 20 µL, for whole blood sample collection.
Accurately weighed approximately 10 mg the sample to be tested, added 10% of the converted total volume of DMSO to dissolve it, and then slowly added 90% of the total volume of 0.5% MC solvent while stirring. Sonicated and vortex to mix thoroughly to obtain a solution of the preparation that is considered to be homogeneous, with a concentration of 1 mg/mL. Prepared fresh immediately before use.
Piped 0.2 mL the sample into a 1.5 mL centrifuge tube and store at -80°C for analysis of the concentration of the drug solution.
Animals were housed in rat cages and fasted for at least 10 hours starting the day before the experiment, but water was allowed. On the day of the experiment, each animal was weighed and marked on its tail. Blank blood samples were collected before drug administration. Blood was collected via tail vein.
• Route of administration: Oral gavage (po); • Dosage concentration: 1 mg/ml; • Dosage: 10 mg/kg; • Dosage volume: 10 mL/kg; • Procedure: Hold the rat upright with your left hand wearing a bite-proof glove, insert the gavage needle into the throat through the mouth, and insert the needle when feeling no obvious resistance. Then inject the drug into the stomach.
Whole blood (0.1-0.2 ml) was collected from test animals at 0.5 h, 1 h, 2 h, 4 h, 6 h, 8 h, 12 h, and 24 h after drug administration. The samples were placed in EDTA-Na 2 anticoagulant tubes, inverted 3-4 times to mix, and centrifuged at 4°C, 2000 g for 5 min to separate the supernatant plasma. The plasma was promptly transferred to -80°C for storage until analysis. Blood was collected via tail vein.
A quantitative detection method for the analyte was established using Shimadzu liquid chromatography and Triple Quad™ 6500+AB mass spectrometry. The concentration of the parent drug in plasma was analyzed. The analytical results were controlled for variation using quality control samples, with the accuracy of the quality control samples expected to be between 80% and 120%.
The main pharmacokinetic parameters were calculated using a non-compartmental model in Winnonlin Phoenix software. These parameters included the area under the curve (AUC(0-t) and AUC(0-∞)), elimination half-life (T1/2), maximum plasma concentration (Cmax ), and time to reach maximum plasma concentration (Tmax).The results are shown in Table 3.

Compound | IC50 ([1]; class symbol) [nM] | IC50 ([1]; number after the class symbol) [nM] | IC50 ([2]; class symbol) [nM] | IC50 ([2]; number after the class symbol) [nM] | IC50 ([3]; class symbol) [nM] | IC50 ([3]; number after the class symbol) [nM] | IC50 ([4]; class symbol) [nM] | IC50 ([4]; number after the class symbol) [nM] | IC50 [5] [nM] | IC50 [6] [nM] | IC50 [7] [nM] | HL [8] [h] | AUC(0-inf) ([8]; rat) [ng·h/mL] | AUC(0-t) ([8]; rat) [ng·h/mL] | Cmax ([8]; rat) [ng/mL] | MRT last ([8]; rat) [h] | Tmax ([8]; rat) [h]
COc1cc(N2CCN(C(=O)CN3CCC(c4ccc5c(N6CCC(=O)NC6=O)nn(C)c5c4)CC3)CC2)ccc1Nc1ncc(Cl)c(Nc2ccccc2)n1 [DZL-2, reference compound] | 100 to 1000 | 220 | 100 to 1000 | 289 | 100 to 1000 | 612 | 100 to 1000 | 265 | – | – | – | – | – | – | – | – | –
CCc1cc(Nc2ncc(Cl)c(Nc3ccccc3C(=O)NC)n2)c(OC)cc1N1CC2(CN(C(=O)CN3CCC(c4cc5c(cc4F)c(N4CCC(=O)NC4=O)nn5C)C(F)(F)C3)C2)C1 (stereo not shown) [TA-019] | < 10 | – | > 1000 | – | 100 to 1000 | – | > 1000 | – | 10 to 100 | 10 to 100 | > 1000 | – | – | – | – | – | –
CCc1cc(Nc2ncc(Cl)c(Nc3ccccc3P3(=O)CCCC3)n2)c(OC)cc1N1CC2(CCN(C(=O)CN3CCC(c4cc5c(cc4F)c(N4CCC(=O)NC4=O)nn5C)C(F)(F)C3)CC2)C1 (stereo not shown) [TB-005] | 10 to 100 | – | > 1000 | – | > 1000 | – | 100 to 1000 | – | 10 to 100 | 10 to 100 | > 1000 | – | – | – | – | – | –
CCc1cc(Nc2ncc(Br)c(Nc3ccccc3P3(=O)CCCC3)n2)c(OC)cc1N1CC2(CCN(C(=O)CN3CCC(c4cc5c(cc4F)c(N4CCC(=O)NC4=O)nn5C)CC3)CC2)C1 [TB-008] | 10 to 100 | – | 100 to 1000 | – | 100 to 1000 | – | 10 to 100 | – | 10 to 100 | 10 to 100 | 100 to 1000 | – | – | – | – | – | –
CCc1cc(Nc2ncc(Cl)c(Nc3ccccc3P(C)(C)=O)n2)c(OC)cc1N1CCC(N(C)C(=O)CN2CCC(c3cc4c(cc3F)c(N3CCC(=O)NC3=O)nn4C)C(F)(F)C2)CC1 (stereo not shown) [TC-089] | 10 to 100 | – | > 1000 | – | 100 to 1000 | – | 100 to 1000 | – | 10 to 100 | 10 to 100 | > 1000 | – | – | – | – | – | –
CCc1cc(Nc2ncc(Cl)c(Nc3ccccc3P(C)(C)=O)n2)c(OC)cc1N1CCN(CCN2CCC(c3cc4c(cc3F)c(N3CCC(=O)NC3=O)nn4C)C(F)(F)C2)CC1 (stereo not shown) [TC-099] | – | – | – | – | – | – | – | – | – | – | – | 7.86 | 9130 | 7840 | 649 | 7.79 | 2.67
CCc1cc(Nc2ncc(Cl)c(Nc3ccccc3P(C)(C)=O)n2)c(OC)cc1N1CC2(CCN(C(=O)CN3CCC(c4cc5c(cc4F)c(N4CCC(=O)NC4=O)nn5C)C(F)(F)C3)C2)C1 (stereo not shown) [TC-105] | 100 to 1000 | – | 100 to 1000 | – | 100 to 1000 | – | 10 to 100 | – | 10 to 100 | 10 to 100 | 100 to 1000 | – | – | – | – | – | –

— patent EP4813979A1, “COMPOUND FOR EGFR PROTEIN DEGRADATION AND USE THEREOF” (TYK Medicines, Inc., priority 2023, dated 2025)
